According to patent US8563578B2, “Antitumor properties of NO modified protease inhibitors” (Onconox APS, priority 2008, dated 2013):

What was measured:
[1] = tested on: C6 cells; experiment: Differentiation markers by cell-based ELISA, C6; set-up: species or system rat; settings: 18.8 μM, 24 h
Description: A slightly modified method for cell-based ELISA (cELISA) by Versteeg (Versteed et al., 2000) was used to measure the expression of galactocerebroside, glial fibrilar acidic protein (GFAP), myelin basic protein (MBP), cyclin D3, p53 and p-AKT. Briefly, at the end of cultivation period cells were fixed in 4% paraformaldehyde, endogenous peroxydase was quenched with 1% H2O2 in PBS containing 0.1% Triton X-100 (PBST), and unspecific binding of antibodies blocked with PBST solution containing 10% FCS. Primary mouse monoclonal antibodies specific for rat/mouse p-Akt (1:200; Santa Cruz Biotechnology, Santa Cruz, Calif.), GFAP (1:200, BioYeda, Israel.), galactocerebroside (1:100; Boehringer Mannheim, Mannheim, Germany), MBP (1:100, Boehringer Mannheim, Mannheim, Germany), cyclin D3 (1:750, Santa Cruz Biotechnology, Santa Cruz, Calif.) and p53 (1:250, Santa Cruz Biotechnology, Santa Cruz, Calif.) were applied in PBST supplemented with 2% bovine serum albumin (PBSTB), followed by secondary peroxidase-conjugated goat anti-mouse IgG (1:2500 in PBSTB; GE Healthcare UK) for anti-GFAP and galactocerebroside or anti-rabbit IgG (1:2500, Healthcare UK) for anti-p-Akt, anti-cyclin D3 and anti-p53. All incubations were performed at 37° C. for 1 h. The absorbance at 450 nm was measured in an automated microplate reader 15 min after incubation with peroxydase substrate TMB and subsequently to addition of 0.1 M HCl. To facilitate comparison between treatments, the obtained absorbances were corrected for the cell number that was determined by crystal violet staining, as described in the original protocol. The results are presented as relative expression in comparison with the control value.
FIG. 5. […] Cell morphology was assessed by light microscopy (A). Markers of cell differentiation of C6 and B16 cells, galactocerebroside, GFAP and MBP were determined by cELISA and melanin and tyrosinase activity were determined as described in material and methods (B). Cyclin D3 and p53 expression were evaluated by cELISA (C, upper panels), immunocytochemistry (C, middle panel) and Western blot (C, lower panel). The results were presented as mean±SD from three independent experiments. *p<0.05, refers to untreated cultures.

[2] = tested on: Tumor cells; experiment: Viability recovery after drug withdrawal (CV test); format: cell-based; settings: 18.8 μM for 24 h, drug removed, additional 24 h
Procedure: Reduction of 3-4,5-dimethylthiazol-2-yl)-2,5-diphenyltetrazolium bromide (MTT) to formazan depends on mitochondrial activity of cultured cells, absorption of crystal violet dye correlates with the number of adherent, live cells, while the release of cytosolic lactate dehydrogenase (LDH) indicates the disruption of membrane integrity caracteristic for necrotic cells. The cells were seeded in flat-bottom 96-well plates in a final volume of 200 μl of culture medium containing different agents, and the assays were performed after 24 h incubation exactly as previously described (Mijatovic et al. 2004, Decker et al., 1998). Mitohondrial-dependent production of formazan and intensity of absorbed crystal violet by adherent cells were assessed by an automated microplate reader at 570 nm, while the pyruvate-mediated conversion of 2,4-dinitrophenylhydrazine into visible hydrazone precipitate in LDH assay was measured at 492 nm. The % of cytotoxicity as indicated by LDH release was calculated as: (E−C)/(T−C)×100, where E is the experimental absorbance of cell cultures, C is the control absorbance of cell-free culture medium, and T is the absorbance corresponding to the maximal (100%) LDH release of Triton-lysed cells.
FIG. 4. […] Results are calculated as indicated in materials and methods and presented as mean±SD from representative of three independent experiment (*p <0.05). […]

[3] = tested on: C6 cells; experiment: Autophagy detection by acridin orange staining, C6; format: cell-based, rat; settings: 18.8 μM, 24 h
Procedure: (§1) Vital dye acridin orange (AO) was used for detection of autophagy. The intensity of red fluorescence correlates with acidity and volume of present autophagic organelles (Kanzawa et al. 2004). Assay was performed as follows: the cells were cultured in 6-well plate (2×10^5/well) 24 h in the presence of the drug, detached with trypsin and stained with 1 μg/ml AO in RPMI without phenol red for 15 min at RT. After the end of incubation period cells were washed and resuspended in PBS. Green and red fluorescence emission was measured with a FACSCalibur and analyzed using CellQuest software.
(§2) FIG. 4. […] Results are calculated as indicated in materials and methods and presented as mean±SD from representative of three independent experiment (*p <0.05). […] After 24 h of cultivation without or with drugs, cells were stained with AO orange (B) or PI (C) and analyzed by flow cytometry. The data are presented as mean±SD from three independent experiments. *p<0.05, refers to untreated cultures. […] Cells were incubated with 18.8 μM of Sag or Saq-NO2 for 24 h. After that, the drugs were either removed or not from the cells and incubated for additional 24 h. Cell viability was determined by CV test after 24 and 48 h of incubation (right panels). The data are presented as mean±SD from three independent experiments. *p<0.05, refers to untreated cultures.

[4] = tested on: B16 cells; experiment: Autophagy detection by acridin orange staining, B16; format: cell-based, mouse; settings: 18.8 μM, 24 h
Procedure: as §1, §2

[5] = tested on: p-Akt in B16 cells; experiment: Akt phosphorylation (cELISA, Western blot), B16; format: cell-based, mouse; settings: 18.8 μM, B16 as representative (similar in C6)
Description: A slightly modified method for cell-based ELISA (cELISA) by Versteeg (Versteed et al., 2000) was used to measure the expression of galactocerebroside, glial fibrilar acidic protein (GFAP), myelin basic protein (MBP), cyclin D3, p53 and p-AKT. Briefly, at the end of cultivation period cells were fixed in 4% paraformaldehyde, endogenous peroxydase was quenched with 1% H2O2 in PBS containing 0.1% Triton X-100 (PBST), and unspecific binding of antibodies blocked with PBST solution containing 10% FCS. […] The absorbance at 450 nm was measured in an automated microplate reader 15 min after incubation with peroxydase substrate TMB and subsequently to addition of 0.1 M HCl. To facilitate comparison between treatments, the obtained absorbances were corrected for the cell number that was determined by crystal violet staining, as described in the original protocol. […]
FIG. 6. […] (C) B16 cells (1×10^4 cells/well) were incubated for 24 h with 18.8 μM Saq-NO2 with or without Akt VI (50μg/ml) or 3-MA (1 mM) and cell viability was assessed by MTT. […]

Structure (SMILES)	expression of GFAP [1]	expression of galactocerebroside [1]	recovery of viability after drug withdrawal [2]	amount of acidic vesicles in the cytoplasm (autophagy) [3]	amount of acidic vesicles in the cytoplasm (autophagy) [4]	p-Akt expression / phosphorylation of AKT [5]
CC(C)(C)NC(=O)[C@@H]1C[C@@H]2CCCC[C@@H]2CN1C[C@@H](O)[C@H](Cc1ccccc1)NC(=O)[C@H](CC(N)=O)NC(=O)c1ccc2ccccc2n1 [Saq, Saquinavir, reference compound]	decreased or unchanged	strongly up regulated	mainly restored the viability	absence of autophagia	absence of autophagia	abrogated p-Akt expression
CC(C)(C)NC(=O)[C@@H]1C[C@@H]2CCCC[C@@H]2CN1C[C@@H](O[N+](=O)[O-])[C@H](Cc1ccccc1)NC(=O)[C@H](CC(N)=O)NC(=O)c1ccc2ccccc2n1 [Saq-NO2, nitric ester of Saquinavir]	decreased or unchanged	strongly up regulated	very mild recovering	absence of autophagia	absence of autophagia	induced considerable transient phosphorylation of AKT
